Measured values from patent publication US20260015337A1 (Trawsfynydd Therapeutics, Inc., priority 2022, published 2026).

These molecules were tested against 3CL Protease (Severe acute respiratory syndrome coronavirus 2, UniProt P0DTD1) (assay: 3CL Protease enzymatic activity assay (BPS Bioscience Assay Kit #78043-1, fluorescence)). Details: Table A; 30 min preincubation, 40 μM substrate, 4 hours at room temperature; read-out: IC50, nM (3CL Protease enzymatic activity).
Assay type: biochemical, SARS-CoV-2
Method in brief: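 SARS-CoV-2 3CL protease was preincubated with compound 30 min at room temperature in assay buffer with 1 mM DTT (≤1% DMSO), then 40 μM substrate added for 4 h at room temperature. Fluorescence at 360/460 nm, blank-subtracted; IC50 from % inhibition, with GC376 as inhibitor control.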
For `Cc1ccc2cc(CC(C#N)NC(=O)[C@@H]3C4[C@H](CN3C(=O)[C@@H](NC(=O)C(F)(F)F)C(C)(C)C)C4(C)C)c(=O)[nH]c2c1` (stereo in doubt) [Compound 146, (1R,2S,5S)—N-(1-Cyano-2-(7-methyl-2-oxo-1,2-dihydroquinolin-3-yl)ethyl)-3-((S)-3,3-dimethyl-2-(2,2,2-trifluoroacetamido)butanoyl)-6,6-dimethyl-3-azabicyclo[3.1.0]hexane-2-carboxamide], the IC50 was 50 to 100 nM. `Cc1ccc2[nH]c(=O)c(CC(C#N)N(C)C(=O)[C@@H]3[C@H]4[C@H](CN3C(=O)[C@@H](NC(=O)C(F)(F)F)C(C)(C)C)C4(C)C)cc2c1` (stereo partly drawn) [Compound 205, (1S,2S,5S)-N-[1-cyano-2-(6-methyl-2-oxo-1H-quinolin-3-yl)ethyl]-3-[(2S)-3,3-dimethyl-2-[(2,2,2-trifluoroacetyl)amino]butanoyl]-N,6,6-trimethyl-3-azabicyclo[3.1.0]hexane-2-carboxamide] showed an IC50 of no less than 1000 nM. Molecule `CC(C)(C)[C@H](NC(=O)C(F)(F)F)C(=O)N1C[C@H]2[C@@H]([C@H]1C(=O)NC(C#N)Cc1cc3c([nH]c1=O)CCCC3)C2(C)C` (mixture of isomers) [Compound 121, (1R,2S,5S)—N-(1-Cyano-2-(2-oxo-1,2,5,6,7,8-hexahydroquinolin-3-yl)ethyl)-3-((S)-3,3-dimethyl-2-(2,2,2-trifluoroacetamido)butanoyl)-6,6-dimethyl-3-azabicyclo[3.1.0]hexane-2-carboxamide] has an IC50 of 250 to 500 nM. Work on `CCOC(=O)N[C@@H](C(=O)N1CC2C(C1C(=O)N[C@@H](C#N)Cc1cc3cc(C)ccc3[nH]c1=O)C2(C)C)C(C)(C)C` (stereo in doubt) [Compound 201, Ethyl N-[(1R)-1-[(1S)-2-[[(1R)-1-cyano-2-(6-methyl-2-oxo-1H-quinolin-3-yl)ethyl]carbamoyl]-6,6-dimethyl-3-azabicyclo[3.1.0]hexane-3-carbonyl]-2,2-dimethyl-propyl]carbamate] yielded an IC50 of 50 to 100 nM. In the case of `Cc1ccc2c(c1)CC(CC(C#N)NC(=O)[C@@H]1[C@@H]3[C@H](CN1C(=O)[C@@H](NC(=O)C(F)(F)F)C(C)(C)C)C3(C)C)C(=O)N2` (stereo partly drawn) [Compound 199, (1R,2S,5S)—N-[1-Cyano-2-(6-methyl-2-oxo-3,4-dihydro-1H-quinolin-3-yl)ethyl]-3-[(2S)-3,3-dimethyl-2-[(2,2,2-trifluoroacetyl)amino]butanoyl]-6,6-dimethyl-3-azabicyclo[3.1.0]hexane-2-carboxamide], the IC50 is reported as less than 50 nM. Work on `COc1ccc2[nH]c(=O)c(CC(C#N)NC(=O)[C@@H]3C4[C@H](CN3C(=O)[C@@H](NC(=O)C(F)(F)F)C(C)(C)C)C4(C)C)cc2c1` (stereo in doubt) [Compound 109, (1R,2S,5S)—N-(1-Cyano-2-(6-methoxy-2-oxo-1,2-dihydroquinolin-3-yl)ethyl)-3-((S)-3,3-dimethyl-2-(2,2,2-trifluoroacetamido)butanoyl)-6,6-dimethyl-3-azabicyclo[3.1.0]hexane-2-carboxamide] yielded an IC50 of 250 to 500 nM. For `CC(C)(C)[C@H](NS(C)(=O)=O)C(=O)N1C[C@H]2C([C@H]1C(=O)NC(C#N)Cc1cc3c([nH]c1=O)CCOC3)C2(C)C` (stereo in doubt) [Compound 124, (1R,2S,5S)—N-(1-Cyano-2-(2-oxo-1,5,7,8-tetrahydro-2H-pyrano[4,3-b]pyridine-3-yl)ethyl)-3-((S)-3,3-dimethyl-2-(methylsulfonamido)butanoyl)-6,6-dimethyl-3-azabicyclo[3.1.0]hexane-2-carboxamide], the IC50 was 100 to 250 nM. Molecule `CC(C)(C)[C@H](NC(=O)C(F)(F)F)C(=O)N1C[C@H]2C([C@H]1C(=O)NC(C#N)Cc1ccc[nH]c1=O)C2(C)C` (stereo in doubt) [Compound 101, (1R,2S,5S)—N-(1-Cyano-2-(2-oxo-1,2-dihydropyridin-3-yl)ethyl)-3-((S)-3,3-dimethyl-2-(2,2,2-trifluoroacetamido)butanoyl)-6,6-dimethyl-3-azabicyclo[3.1.0]hexane-2-carboxamide] has an IC50 of 100 to 250 nM.

Same assay, conditions: Table B; comparison with known compound K; read-out: IC50, nM (3CL Protease enzymatic activity, comparative data)
Work on `CC(C)(C)[C@H](NC(=O)C(F)(F)F)C(=O)N1C[C@H]2C([C@H]1C(=O)NC(C#N)Cc1ccc[nH]c1=O)C2(C)C` (stereo in doubt) [Compound 101, (1R,2S,5S)—N-(1-Cyano-2-(2-oxo-1,2-dihydropyridin-3-yl)ethyl)-3-((S)-3,3-dimethyl-2-(2,2,2-trifluoroacetamido)butanoyl)-6,6-dimethyl-3-azabicyclo[3.1.0]hexane-2-carboxamide] yielded an IC50 of 147 nM.
